Experimental data taken from US10996170B2, “Device and method for imaging shortwave infrared fluorescence” (Massachusetts Institute of Technology, priority 2016, dated 2021).

Tested on: liver
Test: SWIR imaging of hepatobiliary clearance in vivo
Settings: 1.7 mg/kg intravenously; mouse
Procedure: When injected into a living system, indocyanine green is metabolized by the liver and excreted by the liver and bile ducts by a process called hepatobiliary clearance. This process was observed, noninvasively, by injecting a solution of indocyanine green intravenously into a mouse and using an SWIR imaging system as described herein to observe the fluorescence of indocyanine green. The dye was injected at a dose of 1.7 mg/kg which is below the maximum recommended dose of indocyanine green in humans. […] Despite the fact that 1500 nm is far from the peak emission of indocyanine green, there is sufficient emission intensity from the tail of the emission peak in this wavelength region to obtain a SWIR fluorescence image. Separately, hepatobiliary excretion of ICG into the small intestine in a mouse was also imaged using a near video rate imaging of 19.7 frames per second using a 1200 nm long-pass filter, which enabled capturing the peristaltic movements of the small intestine. Although the frame rate was slower, 2.0 frames per second, it was possible to image the ICG clearance using a 1500 nm long-pass filter, capturing wavelengths between roughly 1500 and 1620 nm.

**Q.** For `CC1(C)C(/C=C/C=C/C=C/C=C2\N(CCCCS(=O)(=O)O)c3ccc4ccccc4c3C2(C)C)=[N+](CCCCS(=O)(=O)[O-])c2ccc3ccccc3c21` [ICG, indocyanine green], which “tissue distribution observed by SWIR fluorescence” value is on record?
**A.** Accumulation of indocyanine green in the liver
